Values quoted from earlier work, collected in paper PMC8197769 (Progress in retinal and eye research, 2020).
Read-outs that look alike come from different tables or passages of the source.

Experiments:
[1] = tested on: patients with geographic atrophy; conditions: intravitreal; ref Gensler et al., 2018
[2] = tested on: patients with geographic atrophy; conditions: ref Jaffe et al., 2020
[3] = tested on: drusen; conditions: intravitreal injection, preliminary studies; ref Chi et al., 2010
[4] = tested on: patients with geographic atrophy; conditions: ref Holz et al., 2018
[5] = tested on: patients with paroxysmal nocturnal hemoglobinuria
[6] = tested on: patients with geographic atrophy; conditions: ref Liao et al., 2020
[7] = tested on: patients with geographic atrophy; conditions: 5 mg monthly vs. sham, 150 patients; ref NCT01527500
[8] = intravitreal injection, phase I; ref NCT01255462

In the case of `CO[C@H]1C[C@@H]2CC[C@@H](C)[C@@](O)(O2)C(=O)C(=O)N2CCCC[C@H]2C(=O)O[C@H]([C@H](C)C[C@@H]2CC[C@@H](O)[C@H](OC)C2)CC(=O)[C@H](C)/C=C(\C)[C@@H](O)[C@@H](OC)C(=O)[C@H](C)C[C@H](C)/C=C/C=C/C=C/1C` [sirolimus], the “efficacy for GA” value [1] is given as “did not suggest efficacy for GA”.

In the case of avacincaptad pegol, the endophthalmitis [2] is listed as “no cases of endophthalmitis”.

For compstatin, the effect on drusen [3] is given as “may cause drusen regression”.

For “lampalizumab: fragment of humanized monoclonal antibody, inhibits Factor D”, the “phase III outcome for GA” value [4] is given as “negative results”.

For pegcetacoplan, the “safety during prolonged and systemic clinical intervention” value ([5]; human, in vivo) is listed as “acceptable safety profiles”, the “efficacy in paroxysmal nocturnal hemoglobinuria” value ([5]; phase III, ref Apellis Pharmaceuticals, 2020, Castro et al.) is listed as “showed efficacy” and the “investigator-determined conversion to exudative AMD” value ([6]; every other month group (sham 1.2%)) is listed as 8.9%. The “investigator-determined conversion to exudative AMD” value ([6]; monthly group (sham 1.2%)) was 20.9%.

B1: tesidolumab: IgG1 antibody that prevents C5 cleavage (antibody, chains of the INN, looked up, V domains shown)
VH: EVQLVQSGAEVKKPGSSVKVSCKASGGTFSSYAISWVRQAPGQGLEWMGGIGPFFGTANYAQKFQGRVTITADESTSTAYMELSSLRSEDTAVYYCARDTPYFDYWGQGTLVTVSS
VL: SYELTQPLSVSVALGQTARITCSGDSIPNYYVYWYQQKPGQAPVLVIYDDSNRPSGIPERFSGSNSGNTATLTISRAQAGDEADYYCQSFDSSLNAEVFGGGTKLTVL
In the case of B1, the “benefit for GA or vision” value [7] is listed as “No benefit” and the safety [8] is listed as “No significant safety events were seen”.
